In patent publication US9962351B2, “Small molecule substance for improving sensitivity of bacteria to antibiotics” (priority 2012, dated 2018):
Several values for one entry are separate records, joined by “and”; a condition that tells them apart may be missing. Equal values may be shown once. Read-outs that look alike come from different tables or passages of the source.

Experiments:
[1] = test system: ampicillin-resistant Escherichia coli biofilm; test: Mouse urinary tract catheter biofilm model, bacterial survival rate in biofilm; assay type: in vivo; conditions: mice, tail intravenous injection twice-daily for 3 days; glutamine 100 mg kg−1, glucose 100 mg kg−1, ampicillin 320 mg kg−1 as present
Procedure: (§1) Single clone of ampicillin-resistant Escherichia coli was selected and incubated in LB medium overnight, then transferred into 2 mL fresh LB medium according to the proportion of 1:200 dilutions and transferred to 6 mm ultraviolet sterilized PE-50 catheters. The catheters were inoculated in 1 mL LB at 37 for 24 h. The culture medium was changed every 24 hours for 3 days. The biofilm of ampicillin-resistant bacteria in PE50 catheters were washed with 1 mL sterile phosphate-buffered saline five times to remove loosely adherent cells, and then transferred to 1.5 mL EP tubes.
In vivo experiments in mice, female mice (5 weeks, weighing 18-20 g) received surgical implantation in the urinary tract of PESO catheter tubes. The mice were randomly divided into six groups in 48 h after the surgery, five each group. The six groups included treatment with saline (group 1), 100 mg kg^−1 glutamine (group 2), 320 mg kg^−1 ampicillin (group 3), 100 mg kg^−1 glutamine plus 320 mg kg^−1 ampicillin (group 4), 100 mg kg^−1 glucose plus 320 mg kg^−1 ampicillin (group 5), and 100 mg kg^−1 glutamine and 100 mg kg^−1 glucose plus 320 mg kg^−1 ampicillin (group 6) by tail intravenous injection for 3 days, twice-daily. Catheter tubes were extracted in 24 hours after the last treatment. […] The survival rate was calculated as: viable counts in treatment group/viable counts in control group×100%.

[2] = test system: 6 species of antibiotic resistant Escherichia coli (GEN-R, AMP-R, BLFX-R, KAN-R, NA-R and CAZ-R); conditions: 20 mM glutamine plus 8 μg/mL balofloxacin, 50 μg/mL gentamicin, 160 μg/mL nalidixic acid, ceftazidime, kanamycin or ampicillin; 4 h
Procedure: (§2) Bacterium cultures of 20 mL were collected and centrifuged at 8,000 rpm for 5 minutes. The bacterial pellets were washed with equal volume of 0.85% saline solution, suspended in M9 medium containing 10 mM sodium acetate and then adjusted to OD600 of 0.5. […] These mixtures were cultured in a shaker at 200 rpm at 37° C. for 4 h. Then 100 μL of bacterial suspension was used for bacterial plate counting.

[3] = test system: ampicillin-resistant Escherichia coli biofilm; test: Biofilm on PE-50 catheters in vitro, survival rate; assay type: cell-based; conditions: 6 hours
Procedure: as §1
The test was divided into six groups: saline solution control, 20 mM glutamine, 160 μg/mL ampicillin, 160 μg/mL ampicillin plus 20 mM glutamine, 160 μg/mL ampicillin plus 20 mM glucose, 160 μg/mL ampicillin plus 20 mM glutamine and 20 mM glucose. The catheters were cultured in a shaker at 200 rpm at 37 for 6 hours. The bacterial biofilm was removed from catheters with sonication for 10 minutes. Serial dilutions and spot-plating were performed to determine the cell number. The bacterial survival rate was calculated as: viable counts in treatment group/viable counts in control group×100%.

[4] = test system: antibiotic-resistant bacteria in kidneys; test: Mouse urinary tract infection model, bacterial content in kidneys; assay type: in vivo; conditions: mice, tail i.v. twice-daily for 3 days; glutamine 100 mg kg−1, glucose 100 mg kg−1, ampicillin 320 mg kg−1 as present; saline group 16750
Procedure: In vivo experiments in mice, female mice (5 weeks, weighing 18-20 g) received surgical implantation in the urinary tract of PESO catheter tubes. The mice were randomly divided into six groups in 48 h after the surgery, five each group. The six groups included treatment with saline (group 1), 100 mg kg^−1 glutamine (group 2), 320 mg kg^−1 ampicillin (group 3), 100 mg kg^−1 glutamine plus 320 mg kg^−1 ampicillin (group 4), 100 mg kg^−1 glucose plus 320 mg kg^−1 ampicillin (group 5), and 100 mg kg^−1 glutamine and 100 mg kg^−1 glucose plus 320 mg kg^−1 ampicillin (group 6) by tail intravenous injection for 3 days, twice-daily. Catheter tubes were extracted in 24 hours after the last treatment. To dislodge biofilm cells, catheters were suspended in saline solution with ultrasonic. Serial dilutions and spot-plating were performed to determine the bacterial survival rate in biofilm. The survival rate was calculated as: viable counts in treatment group/viable counts in control group×100%.
Meanwhile, kidneys of mice were homogeneous with appropriate amount of saline. Bacterial content in kidneys was determined by plate counting method.

[5] = test system: penicillin-resistant Escherichia coli (4 antibiotic resistant bacteria); test: Viable counts and survival rate of penicillin-resistant bacteria with 4 penicillins; assay type: cell-based; conditions: 20 mM glutamine with ampicillin 320 μg/mL, penicillin G 2560 μg/mL, amoxicillin 512 μg/mL or carbenicillin 320 μg/mL, 4 hours
Procedure: To investigate whether the sensitivity of Escherichia coli and antibiotic resistant Escherichia coli to penicillin antibiotics was improved with glutamine, the samples of control bacteria and penicillin-resistant bacteria were prepared according to Embodiment 2.1. The viable counts and survival rate of bacteria were calculated after added with 20 mM glutamine and 4 kinds of penicillins (does for control bacteria were: ampicillin 25 μg/mL, penicillin G 200 μg/mL, amoxicillin 20 μg/mL, carbenicillin 100 μg/mL; does for antibiotic resistant bacteria were: ampicillin 320 μg/mL, penicillin G 2560 μg/mL, amoxicillin 512 μg/mL, carbenicillin 320 μg/mL) for 4 hours. […] The sensitivity of control bacteria increased 38-1000 times and 71-1900 times for 4 antibiotic resistant bacteria when added with glutamine.

[6] = test system: Staphylococcus aureus, Edwardsiella tarda, Beta streptococcus, Pseudomonas aeruginosa, Escherichia coli, Vibrio alginolyticus and Vibrio parahaemolyticus; test: Plate counting of several species of bacteria with ampicillin and glutamine; assay type: cell-based; conditions: 20 mM glutamine and ampicillin at double MIC for each strain, 4 hours
Procedure: (Staphylococcus aureus, B. streptococcus, Pseudomonas aeruginosa, Escherichia coli) or 30° C. (the others) for 16 hours.

[7] = test system: Escherichia coli K12 BW25113 (control bacteria); test: Viable counts and survival rate of control bacteria; assay type: cell-based; conditions: 4 hours
Procedure: (§3) The viable counts and survival rate of bacteria were calculated after added with 20 mM glutamine and 160 μg/mL ampicillin for 4 hours.
The viable counts and survival rate of bacteria were calculated after added with 20 mM glutamine and 4 kinds of penicillins (does for control bacteria were: ampicillin 25 μg/mL, penicillin G 200 μg/mL, amoxicillin 20 μg/mL, carbenicillin 100 μg/mL; does for antibiotic resistant bacteria were: ampicillin 320 μg/mL, penicillin G 2560 μg/mL, amoxicillin 512 μg/mL, carbenicillin 320 μg/mL) for 4 hours.
The viable counts and survival rate of bacteria were calculated after added with 20 mM glutamine and antibiotics at the concentration of 8 times of MIC for 4 hours.

[8] = test system: ampicillin-resistant Escherichia coli (AMP-R); assay type: cell-based; conditions: 20 mM glutamine; for killing efficiency increase compared with the treatment without glutamine: 4 hours
Procedure: as §2
To investigate the effect of antibiotic dose on the sensitivity of bacteria to antibiotics by glutamine, 20 mM glutamine and 20, 40, 80, 160, 240, 320 and 400 μg/mL ampicillin were used to treat ampicillin-resistant Escherichia coli for 4 hours, and then bacterial plate counting was conducted. The survival rates of bacteria with and without glutamine were compared at the same antibiotic concentration.
To investigate the effect of exposure time on the killing efficiency, the viable counts of bacteria were counted during 1-8 hours after spiked with 20 mM glutamine and 160 μg/mL ampicillin.
To investigate the effect of glutamine concentration on killing efficiency and the optimum bactericidal concentrations, different concentrations of glutamine were added to 160 μg/mL ampicillin. The number of live bacteria was counted after 4 hours. The survival rate was calculated according to the formula below: viable counts at different concentration of glutamine/viable counts without glutamine×100%.
Single clone of ampicillin-resistant Escherichia coli was selected and inoculated in 100 mL LB medium and cultured at 200 rpm at 37° C. for 16 hours. Bacterial suspension of 20 mL was collected and centrifuged at 8,000 rpm for 5 min. The resulting bacterial pellets were washed with equal volume of 0.85% saline solution, suspended in M9 medium containing 10 mM sodium acetate and then adjusted to […] of 0.5. Aliquots of 5 mL bacterial cells were transferred to test tubes for further application.
The sample was added with 160 μg/mL ampicillin and 0-20 Mm glucose, then cultured in a shaker at 200 rpm at 37° C. for 4 hours. The cell number was counted and survival rate was calculated. […]

[9] = test system: eight species of antibiotic resistant Escherichia coli; test: Viable counts and survival rate of several antibiotic resistant bacteria with ampicillin; assay type: cell-based; conditions: 20 mM glutamine, 160 μg/mL ampicillin, 4 hours
Procedure: as §3

NC(=O)CC[C@H](N)C(=O)O [glutamine]
bacterial survival rate in catheter biofilm in comparison with saline control [1]: 88.24%
sensitivity of antibiotic resistant bacteria to respective antibiotic [2]: improved the sensitivity of 6 species of antibiotic resistant bacteria to respective antibiotic
elimination of biofilm by single agent ([3]; 20 mM glutamine or 160 μg/mL ampicillin alone): did not eliminate the antibiotic-resistant bacterium biofilm
bacterial survival rate in biofilm (treatment group/saline control) ([3]; 20 mM glutamine, 160 μg/mL ampicillin, 20 mM glucose as present): 96.03%
bacterial content in kidneys [4]: 9113 cell/g
sensitivity to four types of penicillins increased [5]: 71-1900 times
sensitivity of several species of bacteria to ampicillin [6]: improved generally
sensitivity to four types of penicillins increased ([7]; 20 mM glutamine with ampicillin 25 μg/mL, penicillin G 200 μg/mL, amoxicillin 20 μg/mL or carbenicillin 100 μg/mL): 38-1000 times
sensitivity to 4 kinds of antibiotics improved ([7]; 20 mM glutamine with tetracycline, erythromycin, clindamycin or rifampicin at 8 times of MIC): approximately 1.5 times
sensitivity to ampicillin increased ([7]; 20 mM glutamine, 160 μg/mL ampicillin): 1.75 times
killing efficiency increase compared with the treatment without glutamine ([8]; 20 μg/mL ampicillin): 1.12 folds
killing efficiency increase compared with the treatment without glutamine ([8]; 40 μg/mL ampicillin): 1.57 folds
killing efficiency increase compared with the treatment without glutamine ([8]; 80 μg/mL ampicillin): 1.95 folds
elevated sensitivity of ampicillin-resistant bacteria to ampicillin ([8]; 160 μg/mL ampicillin, 4 h): about 200 folds
killing efficiency increase compared with the treatment without glutamine ([8]; 160 μg/mL ampicillin): 7.66 folds
killing efficiency increase ([8]; 160 μg/mL ampicillin, after 4 hours or more): 8-22 times
killing efficiency increase compared with the treatment without glutamine ([8]; 240 μg/mL ampicillin): 24.29 folds
killing efficiency increase compared with the treatment without glutamine ([8]; 320 μg/mL ampicillin): 137.78 folds
killing efficiency increase compared with the treatment without glutamine ([8]; 400 μg/mL ampicillin): 171.34 folds and 200 folds
sensitivity to ampicillin increased [9]: 4-36 times
